In US20260242391A1 (priority 2023, published 2026):

Legend:
HL-60 = HL-60 differentiation potency; type: cell-based; conditions: Homo sapiens
in vitro = conditions: human

Structure (SMILES)	EC50 (HL-60)	IC50 (in vitro)
C[C@H]1[C@@H](Oc2ccc(C(=O)N[C@@H](CC3CCC3)C(=O)O)cc2)O[C@@H]2O[C@@]3(C)CC[C@H]4[C@H](C)CC[C@@H]1[C@@]24OO3 [Compound 205, (S)-3-cyclobutyl-2-(4-(((3R,5aS,6R,8aS, 9R,10S,12R, 12aR)-3,6,9-trimethyldeca-hydro-12H-3,12-epoxy[1,2]dioxepino[4,3-i]isochromen-10-yl)oxy)benzamido) propanoic acid]	35.1 nM	0.11 µM
C[C@H]1[C@@H](Oc2ccc(OCC(=O)O)cc2Cl)O[C@@H]2O[C@@]3(C)CC[C@H]4[C@H](C)CC[C@@H]1[C@@]24OO3 [Compound 218, 2-(3-chloro-4-(((3R,5aS,6R,8aS, 9R,10S,12R, 12aR)-3,6,9-trimethyldeca-hydro-12H-3,12-epoxy[1,2]dioxepino[4,3-i]isochromen-10-yl)oxy)phenoxy) acetic acid]	101 nM	0.69 µM
C[C@H]1[C@@H](OCc2c(Cl)cc(C(=O)O)cc2S(C)(=O)=O)O[C@@H]2O[C@@]3(C)CC[C@H]4[C@H](C)CC[C@@H]1[C@@]24OO3 [Compound 216, 3-chloro-5-(methylsulfonyl)-4-((((3R,5aS,6R,8aS, 9R,10S,12R, 12aR)-3,6,9-trimethyldeca-hydro-12H-3,12-epoxy[1,2]dioxepino[4,3-i]isochromen-10-yl)oxy)methyl) benzoic acid]	7180 nM	> 20 µM
C[C@H]1[C@@H](Oc2ccc(C(=O)N[C@H]3CCC(=O)NC3=O)cc2)O[C@@H]2O[C@@]3(C)CC[C@H]4[C@H](C)CC[C@@H]1[C@@]24OO3 [Compound 198, N-((S)-2,6-dioxopiperidin-3-yl)-4-(((3R,5aS,6R,8aS, 9R,10S,12R, 12aR)-3,6,9-trimethyldeca-hydro-12H-3,12-epoxy[1,2]dioxepino[4,3-i]isochromen-10-yl)oxy)benzamide]	47.9 nM	4 µM
C[C@H]1[C@@H](OCc2ccc(OCC(=O)O)cc2)O[C@@H]2OC3(C)CC[C@H]4[C@H](C)CC[C@@H]1[C@@]24OO3 (stereo in doubt) [Compound 274, 2-(4-((((3R,5aS,6R,8aS, 9R,10S,12R, 12aR)-3,6,9-trimethyldeca-hydro-12H-3,12-epoxy[1,2]dioxepino[4,3-i]isochromen-10-yl)oxy)methyl)phenoxy)acetic acid]	848 nM	> 20 µM
C[C@H]1[C@H](OCc2ccc(C(=O)O)cc2C(F)(F)F)O[C@@H]2O[C@@]3(C)CC[C@H]4[C@H](C)CC[C@@H]1[C@@]24OO3 [Compound 195, 3-(trifluoromethyl)-4-((((3R,5aS,6R,8aS, 9R,10R,12R, 12aR)-3,6,9-trimethyldeca-hydro-12H-3,12-epoxy[1,2]dioxepino[4,3-i]isochromen-10-yl)oxy)methyl) benzoic acid]	156 nM	10 µM
C[C@H]1[C@@H](OCC2(F)CCCC(C(=O)O)C2)O[C@@H]2O[C@@]3(C)CC[C@H]4[C@H](C)CC[C@@H]1[C@@]24OO3 (stereo partly drawn) [Compound 222, 3-fluoro-3-((((3R,5aS,6R,8aS, 9R,10S,12R, 12aR)-3,6,9-trimethyldeca-hydro-12H-3,12-epoxy[1,2]dioxepino[4,3-i]isochromen-10-yl)oxy)methyl) cyclohexane-1-carboxylic acid]	134 nM	19 µM
CO[C@]1(CO[C@H]2O[C@@H]3O[C@@]4(C)CC[C@H]5[C@H](C)CC[C@@H]([C@H]2C)[C@@]35OO4)CC[C@H](C(=O)O)CC1 [Compound 193, (1R,4s)-4-methoxy-4-((((3R,5aS,6R,8aS, 9R,10S,12R, 12aR)-3,6,9-trimethyldeca-hydro-12H-3,12-epoxy[1,2]dioxepino[4,3-i]isochromen-10-yl)oxy)methyl) cyclohexane-1-carboxylic acid]	7030 nM	> 20 µM
C[C@H]1[C@@H](Oc2ccc(C(=O)N3C[C@H]4[C@@H]([C@H]3C(=O)O)C4(C)C)cc2)O[C@@H]2O[C@@]3(C)CC[C@H]4[C@H](C)CC[C@@H]1[C@@]24OO3 [Compound 190, (1R,2S,5S)-6,6-dimethyl-3-(4-(((3R,5aS,6R,8aS, 9R,10S,12R, 12aR)-3,6,9-trimethyldeca-hydro-12H-3,12-epoxy[1,2]dioxepino[4,3-i]isochromen-10-yl)oxy)benzoyl)-3-azabicyclo[3.1.0] hexane-2-carboxylic acid]	80.3 nM	0.33 µM
C[C@H]1[C@@H](Oc2cc(Cl)cc(CC(=O)O)c2)O[C@@H]2O[C@@]3(C)CC[C@H]4[C@H](C)CC[C@@H]1[C@@]24OO3 [Compound 186, 2-(3-chloro-5-(((3R,5aS,6R,8aS, 9R,10S,12R, 12aR)-3,6,9-trimethyldeca-hydro-12H-3,12-epoxy[1,2]dioxepino[4,3-i]isochromen-10-yl)oxy)phenyl) acetic acid]	62.4 nM	4 µM
C[C@H]1[C@@H](Oc2ccc(C(=O)N3CC(C(=O)O)C3)cc2Cl)O[C@@H]2O[C@@]3(C)CC[C@H]4[C@H](C)CC[C@@H]1[C@@]24OO3 [Compound 244, 1-(3-chloro-4-(((3R,5aS,6R,8aS, 9R,10S,12R, 12aR)-3,6,9-trimethyldeca-hydro-12H-3,12-epoxy[1,2]dioxepino[4,3-i]isochromen-10-yl)oxy)benzoyl) azetidine-3-carboxylic acid]	101 nM	2.46 µM

Continued, values first:

EC50 (HL-60)	IC50 (in vitro)	Structure (SMILES)
26.8 nM	4.86 µM	C[C@H]1[C@@H](Oc2ccc([C@@H](C)C(=O)O)cc2F)O[C@@H]2O[C@@]3(C)CC[C@H]4[C@H](C)CC[C@@H]1[C@@]24OO3 [Compound 279, (R)-2-(3-fluoro-4-(((3R,5aS,6R,8aS, 9R,10S,12R, 12aR)-3,6,9-trimethyldeca-hydro-12H-3,12-epoxy[1,2]dioxepino[4,3-i]isochromen-10-yl)oxy)phenyl) propanoic acid]
197 nM	> 20 µM	C[C@H]1[C@@H](OC[C@H]2CC[C@@H](C(=O)NC34CCC(C(=O)O)(C3)C4)CC2)O[C@@H]2O[C@@]3(C)CC[C@H]4[C@H](C)CC[C@@H]1[C@@]24OO3 [Compound 295, 4-((1R,4s)-4-((((3R,5aS,6R,8aS, 9R,10S,12R, 12aR)-3,6,9-trimethyldeca-hydro-12H-3,12-epoxy[1,2]dioxepino[4,3-i]isochromen-10-yl)oxy)methyl)cyclohexane-1-carboxamido) bicyclo[2.1.1] hexane-1-carboxylic acid]
4580 nM	> 20 µM	C[C@H]1[C@@H](Oc2ccc(C(=O)N[C@H](C(=O)O)C(C)(C)O)cc2)O[C@@H]2O[C@@]3(C)CC[C@H]4[C@H](C)CC[C@@H]1[C@@]24OO3 [Compound 254, (S)-3-hydroxy-3-methyl-2-(4-(((3R,5aS,6R,8aS, 9R,10S,12R, 12aR)-3,6,9-trimethyldeca-hydro-12H-3,12-epoxy[1,2]dioxepino[4,3-i]isochromen-10-yl)oxy)benzamido) butanoic acid]
240 nM	6.8 µM	C[C@H]1[C@@H](OCc2ccc(C(=O)N[C@H]3CC[C@@H](C(=O)O)C3)cc2)O[C@@H]2O[C@@]3(C)CC[C@H]4[C@H](C)CC[C@@H]1[C@@]24OO3 [Compound 275, (1R,3S)-3-(4-((((3R,5aS,6R,8aS, 9R,10S,12R, 12aR)-3,6,9-trimethyldeca-hydro-12H-3,12-epoxy[1,2]dioxepino[4,3-i]isochromen-10-yl)oxy)methyl)benzamido) cyclopentane-1-carboxylic acid]
354 nM	> 20 µM	C[C@H]1[C@@H](OCc2ccc(C(=O)N[C@H]3C[C@@H](C(=O)O)C3)cc2)O[C@@H]2O[C@@]3(C)CC[C@H]4[C@H](C)CC[C@@H]1[C@@]24OO3 [Compound 278, (1R,3s)-3-(4-((((3R,5aS,6R,8aS, 9R,10S,12R, 12aR)-3,6,9-trimethyldeca-hydro-12H-3,12-epoxy[1,2]dioxepino[4,3-i]isochromen-10-yl)oxy)methyl)benzamido) cyclobutane-1-carboxylic acid]
56.1 nM	1.42 µM	C[C@H]1[C@@H](Oc2ccc(C(=O)N3CC[C@@H](C(=O)O)C3)cc2Cl)O[C@@H]2O[C@@]3(C)CC[C@H]4[C@H](C)CC[C@@H]1[C@@]24OO3 [Compound 247, (R)-1-(3-chloro-4-(((3R,5aS,6R,8aS, 9R,10S,12R, 12aR)-3,6,9-trimethyldeca-hydro-12H-3,12-epoxy[1,2]dioxepino[4,3-i]isochromen-10-yl)oxy)benzoyl) pyrrolidine-3-carboxylic acid]
47.8 nM	13.4 µM	C[C@H]1[C@@H](OCc2ccc(C(=O)NC3CC4(C3)CC(C(=O)O)C4)cc2)O[C@@H]2O[C@@]3(C)CC[C@H]4[C@H](C)CC[C@@H]1[C@@]24OO3 (stereo partly drawn) [Compound 291, 6-(4-((((3R,5aS,6R,8aS, 9R,10S,12R, 12aR)-3,6,9-trimethyldeca-hydro-12H-3,12-epoxy[1,2]dioxepino[4,3-i]isochromen-10-yl)oxy)methyl)benzamido)spiro [3.3]heptane-2-carboxylic acid]
1780 nM	> 20 µM	C[C@H]1[C@@H](OCc2ccc(C(=O)N3CCC(C(=O)O)CC3)cc2)O[C@@H]2O[C@@]3(C)CC[C@H]4[C@H](C)CC[C@@H]1[C@@]24OO3 [Compound 277, 1-(4-((((3R,5aS,6R,8aS, 9R,10S,12R, 12aR)-3,6,9-trimethyldeca-hydro-12H-3,12-epoxy[1,2]dioxepino[4,3-i]isochromen-10-yl)oxy)methyl)benzoyl) piperidine-4-carboxylic acid]
524 nM	> 20 µM	C[C@H]1[C@@H](OCc2ccc(C(=O)NC(C)(C)C(=O)O)cc2)O[C@@H]2O[C@@]3(C)CC[C@H]4[C@H](C)CC[C@@H]1[C@@]24OO3 [Compound 284, 2-methyl-2-(4-((((3R,5aS,6R,8aS, 9R,10S,12R, 12aR)-3,6,9-trimethyldeca-hydro-12H-3,12-epoxy[1,2]dioxepino[4,3-i]isochromen-10-yl)oxy)methyl)benzamido) propanoic acid]
46.4 nM	> 20 µM	C[C@H]1[C@@H](Oc2ccc(CC(=O)NC34CC(C(=O)O)(C3)C4)cc2)O[C@@H]2O[C@@]3(C)CC[C@H]4[C@H](C)CC[C@@H]1[C@@]24OO3 [Compound 303, 3-(2-(4-(((3R,5aS,6R,8aS, 9R,10S,12R, 12aR)-3,6,9-trimethyldeca-hydro-12H-3,12-epoxy[1,2]dioxepino[4,3-i]isochromen-10-yl)oxy)phenyl)acetamido) bicyclo[1.1.1] pentane-1-carboxylic acid]
